In US9024027B2, “Derivatives of 1-phenyl-2-pyridinyl alkyl alcohols as phosphodiesterase inhibitors” (Chiesi Farmaceutici S.p.A., priority 2011, dated 2015):

What was measured:
[1] = human, microsomes
Protocol: Test compounds in duplicate at the final concentration of 1 μM are dissolved in DMSO (DMSO final concentration 0.5% v/v) and pre-incubated for 10 minutes at 37° C. in potassium phosphate buffer pH 7.4, 3 mM MgCl2, with liver microsomes at the final concentration of 0.5 mg/ml. After the pre-incubation period, reactions are started by adding the cofactors mixture (NADP, Glc6P, Glc6P-DH); samples are taken at time 0, 5, 10, 15, 20 and 30 minutes, added to acetonitrile to stop reaction and centrifuged. The supernatants are analysed and quantified by LC-MS/MS.
A control sample without cofactors is always added in order to check the stability of test compounds in the matrix. […] Percent loss of substrate in incubation is determined to estimate in-vitro half life and in-vitro intrinsic clearance of compounds. […]
where: • k is calculated from the exponential fitting decay of the area values • V=incubation volume (mL)/mg protein • y=microsomal protein yield=52.5 mg/g liver Method b.
Test compounds are incubated, in duplicate, at the concentration of 1 μM with liver microsomes (0.8 mg protein/mL) in KHB buffer (pH 7.4) at 37° C. in the presence of 1 mM NADPH. […] The supernatant is analysed by LC-MS/MS for unchanged compounds.
Test compounds are incubated with liver microsomes in KHB buffer in the absence of NADPH for 0 and 60 minutes, as control. […] The half-life is calculated from the relationship: […]

[2] = test system: LPS-induced TNF-α release in peripheral blood mononuclear cells (PBMCs); assay: In vitro determination of PDE4 inhibitory activity in the PBMCs assay (LPS-induced TNF-α release); format: cell-based; conditions: PBMC; human PBMCs, LPS 3 ng/ml, 18 hours; read-out: PDE4 inhibition (IC50, 50% inhibition of LPS-induced TNF-α release)
Protocol: The assay, which is based on the known inhibitory activity exerted by PDE4 inhibitors on the lipopolyshaccarides (LPS)-induced tumour necrosis factor-alpha (TNF-α release in peripheral blood mononuclear cells (PBMCs), was performed according to a method previously described (Hatzelmann A et al., J. Pharmacol. Exp. Ther., 2001; 297:267-279; and Draheim R et al., J. Pharmacol. Exp. Ther., 2004; 308:555-563, both of which are incorporated herein by reference in their entireties. Cryopreserved human PBMCs, (100 μl/well) were incubated in 96-well plates (10^5 cells/well), for 30 minutes, in the presence or absence (50 microl) of the test compounds whose concentrations ranged from 10^−12 M to 10^−6 M or from 10^−13 M to 10^−7 M. Subsequently, LPS (3 ng/ml) was added. After 18 hours of incubation at 37° C. in a humidified incubator under an atmosphere of 95% air and 5% CO2, culture medium was collected and TNF-α measured by ELISA.
The results of the tested compounds, representatives of the invention, expressed as mean±95% confidence limits of the molar concentration of the test compound producing 50% inhibition of LPS-induced TNF-α release (IC50) are shown in the following Table: […]

O=C(Cn1c(=O)oc2ccccc21)O[C@@H](Cc1c(Cl)c[n+]([O-])cc1Cl)c1ccc(OC(F)F)c(OCC2CC2)c1 [Compound 24]
intrinsic Clearance [1]: > 15 mL/min/g

CS(=O)(=O)N(CCN1CCOCC1)c1ccc2c(c1)C(=O)C(=O)N2CC(=O)O[C@@H](Cc1c(Cl)c[n+]([O-])cc1Cl)c1ccc(OC(F)F)c(OCC2CC2)c1 [Compound 240, (S)-3,5-dichloro-4-(2-(3-(cyclopropylmethoxy)-4-(difluoromethoxy)phenyl)-2-(2-(5-(N-(2-morpholinoethyl)methylsulfonamido)-2,3-dioxoindolin-1-yl)acetoxy)ethyl)pyridine 1-oxide]
IC50 [2]: < 1 nM

O=C(Cn1ccc2cccnc21)O[C@@H](Cc1c(Cl)c[n+]([O-])cc1Cl)c1ccc(OC(F)F)c(OCC2CC2)c1 [Compound 60]
IC50 [2]: 1 to 10 nM

Nc1ccc2c(c1)C(=O)N(CC(=O)O[C@@H](Cc1c(Cl)c[n+]([O-])cc1Cl)c1ccc(OC(F)F)c(OCC3CC3)c1)C2 [Compound 9, (S)-4-(2-(2-(6-amino-1-oxoisoindolin-2-yl)acetoxy)-2-(3-(cyclopropylmethoxy)-4-(difluoromethoxy)phenyl)ethyl)-3,5-dichloropyridine 1-oxide]
IC50 [2]: 1 to 10 nM

O=C(Cn1ccc2cnccc21)O[C@@H](Cc1c(Cl)c[n+]([O-])cc1Cl)c1ccc(OC(F)F)c(OCC2CC2)c1 [Compound 61]
IC50 [2]: 1 to 10 nM

CS(=O)(=O)N(Cc1ccccn1)c1ccc2c(c1)C(=O)N(CC(=O)O[C@@H](Cc1c(Cl)c[n+]([O-])cc1Cl)c1ccc(OC(F)F)c(OCC3CC3)c1)C2=O [Compound 190]
IC50 [2]: < 1 nM

O=C(CN1C(=O)c2cccc(NO)c2C1=O)O[C@@H](Cc1c(Cl)c[n+]([O-])cc1Cl)c1ccc(OC(F)F)c(OCC2CC2)c1 [Compound 170]
IC50 [2]: < 1 nM
